Residues, ends and D or L forms follow the SMILES beside them.
How the values were obtained:
human TF-1 cells = assay: IL-1β-induced thymocyte (TF-1) proliferation, CyQUANT NF dye; assay type: cell-based; details: peptide 1 μM; human IL-1β 25 ng/mL; 48 h
Description: Immune cell proliferation was assessed by DNA intercalation of CyQUANT NF® fluorescent dye (Invitrogen, Carlsbad, Calif., USA). Essentially, human TF-1 cells (CRL-2003, American Type Culture Collection) were cultured in complete RPMI 1640 (WISENT Inc., Montréal, Quebec, Canada) supplemented with human GM-CSF (2 ng/ml, PeptroTech, Rocky Hill, N.J., USA). Cells (passage 5 and at least 85% viable, as verified by trypan blue dying) were reincorporated into RPMI 1640 medium deprived of phenol red (Gibco Invitrogen®, Carlsbad, Calif., USA) and of growth factors [i.e. fetal bovine serum (FBS) and GM-CSF] for 18 h and split (5×10^3 cells in 200 μL/well) into 96-well non-adherent flat bottom culture plates (Sarstedt®, Nümbrecht, Germany). Following 15 min pre-incubation with peptide or peptidomimetic (1 μM), the cells were treated with human IL-1β (25 ng/mL, PeproTech®, Rocky Hill, N.J., USA) and re-incubated. After 48 h, the cells were centrifuged for 7 min at 300 g, reincorporated into Hank's Buffered Salt Solution (1×HBSS, 50 μL/well, Gibco Invitrogen®, Carlsbad, Calif., USA) and transferred into a 96-well polystyrene black plate (Corning Incorporated, Corning, N.Y., USA). An additional 50 μL solution made of CyQUANT NF® dye (component A, 1×) and CyQUANT NF™ delivery agent (component B, 1×) in 1×HBSS was added to the cells in each well, which were covered with aluminum foil and incubated for 45 min. Fluorescence intensity was measured using a microplate reader (Perkin Elmer Wallac Envision® 2104; Perkin Elmer®, California, USA) with excitation at 485 nm and emission detection at 530 nm (FITC 485 and FITC 531 filters, respectively). Hexaplicate experiments were repeated three times and results were analyzed by one-way analysis of variance (ANOVA) factoring for treatments, and data are presented as mean±standard error of the mean (SEM).

[1] = test system: NF-κB activation in HEK Blue IL-33/IL-1β sensor cells; assay: HEK Blue SEAP reporter gene assay of NF-κB activation; assay type: cell-based; details: peptide 1 μM; human IL-1β 2.5 ng/mL; 24 h
Description: Activation of the NF-κB pathway upon interaction with IL-1β (or IL-33) receptor complex at the membrane was assessed via HEK-Blue SEAP reporter gene assay (InvivoGen®, California, USA). Basically, HEK Blue IL-33/IL-1β sensor cells were cultured in growth medium made of complete Dulbecco's modified Eagle medium (DMEM; 4.5 g/L glucose, 2 mM L-glutamine, […], 10% fetal bovine serum, 50 U/mL penicillin, 50 μg/mL streptomycin; Gibco Invitrogen®, Ontario, Canada) supplemented with selection antibiotics (30 μg/mL Blasticidin®, 200 μg/mL HygroGold® and 100 μg/mL Zeocin®; InvivoGen, California, USA). Upon reaching almost 70% confluency, HEK Blue cells were reincorporated into complete DMEM medium and split (2.5×10^4 cells in 180 μL/well) into 96-well membrane-treated flat bottom culture plates (Plate #3595, Corning Life Sciences, Massachusetts, USA). Cells were pretreated with 10 μL of peptide or peptidomimetic (1 μM) for 15 min., after which 10 μL of human IL-1β (2.5 ng/mL, PeproTech®, Rocky Hill, N.J., USA) was added. Following 24 h of incubation, 40 μL of the cells supernatant was added to a UV-transparent 96-well plate (Plate #3635, Corning Life Sciences®, Massachusetts, USA) already filled with 160 μL of resuspended Quanti-Blue® dye (1×, InvivoGen, California, USA). The plate was covered and incubated for 20 min. The level of SEAP was measured by reading absorbance (or optical density, OD) at 620 nm using a multiplate reader equipped with a monochromator (Perkin Elmer Wallac Envision® 2104; Perkin Elmer®, California, USA). Hexaplicate results were normalized over complete DMEM background signal and analyzed by one-way analysis of variance (ANOVA) factoring for treatments, and data are presented as mean±standard error of the mean (SEM).

Compound	diminished IL-1β-induced proliferation (human TF-1 cells)	inhibition of NF-κB activation (OD620) [1]
CC(C)C[C@@H](NC(=O)[C@@H](CCC(=O)O)NC(=O)[C@@H](C(C)C)N1CCN(NC(=O)[C@@H](Cc2ccc(O)cc2)NC(=O)[C@H](N)CCCNC(=N)N)C1=O)C(=O)N[C@H](C)C(N)=O [[Nai^3]-101.10, D-Arg-D-Tyr-Nai-D-Val-D-Glu-D-Leu-D-Ala-NH2] (HELM PEPTIDE1{[dR].[dY].[CC(C)[C@H](C(=O)[*:2])N1CCN(N[*:1])C1=O].[dE].[dL].[dA].[am]}$$$$V2.0)	77%	65%
D-Arg-D-Tyr-D-Thr-D-Val-DGlu-D-Leu-D-Ala-NH2 [101.10, reference compound]	15%	77%
Kineret: a competitive IL-1R antagonist		100%
